Test results from patent US20060188573A1, “Composite materials and particles” (priority 2003, published 2006).

System: blood
Experiment: Blood compatibility: coagulation
Details: 4.0 ml blood added, circulating at 37 degrees C. for 60 minutes in heparin-coated tubes; duplicate
Procedure: The lipid/polymer hybrid particles have been characterized with respect to coagulation and hemolyse. Briefly, the experiments were carried out as follows:
Coagulation: Solvent/water mixture, with the same ratio used for particle formation, was used as negative control. Other samples were pure polymer, pure lipid, lipid/polymer composite particles and Taxol. Taxol was used as positive control. All experiments were carried out in dublicate.4.0 ml blood were added to each sample before the samples were circulating, at 37 degrees C. for 60 minutes, in tubes with the inside coated with heparin.

Compound: CCCCCCCC/C=C\CCCCCCCC(=O)OCC(O)CO (stereo not shown) [pure lipid, glyceryl-mono-oleate]
- coagulation: no coagulation
